Test [1] has as its system Fibronectin secretion from skin SK-Mel-5 cells. In words: Fibronectin secretion (Western blot), SK-MEL-5 cells. It counts as cell-based, human. The note with it: for % inhibition of Fibronectin secretion: 10 ug/ml.
Another test relates to (Prostate) DU145. Briefly: MTT assay DU145. In kind it is cell-based, human. The method, then: (§1) Cells. Human cancer cell lines were obtained from American Type Culture Collection: HTB-9 (bladder), HeLa-S3 (cervix), DU145 (prostate), H460 (lung), MCF-7 (breast), K562 (leukocytes), HCT116 (colon), HepG2 (liver), U2OS (bone), T98G (brain), SK-MEL-5 (Skin) and OVCAR-3 (ovary). The cells were grown in following culture media: HeLa-53, DU145, MCF-7, Hep-G2 and T98G are in MEN (Earle's salts); HTB-9, H460, K562 and OVCAR-3 in RPMI-1640; HCT-116 and U2OS in McCoy-5A. They are supplemented with 10% fetal calf serum, glutamine and antibiotics, and incubated in an incubator with 5% CO2 humidified at 37° C.
(§2) MTT Assay. The procedure for MTT assay followed the method described by Carmichael et al. (1987) with modifications. […] The formazan (product of the reduction of tetrazolium by viable cells) formed and was dissolved with DMSO and the O.D. at 490 nm, and was measured by an ELISA reader. The MTT level of the cells before drug-treatment was also measured (T0). The % cell-growth (% G) is calculated as: % G=(TD−T0/TC−T0)×100(1), where TC or TD represents O.D. readings of control or drug-treated cells. When T0>TD, then the cytotoxicity (LC) expressed as % of the control is calculated as: % LC=(TD−T0/T0)×100(2).

A further test relates to ES2(ovarian) cells. Briefly: MTT assay ES2. In kind it is cell-based, human. The note with it: ES2 cells. (Formazan colour is commonly taken as a measure of viable cells.)
For test [2], the system named is Fibronectin secretion from ES2 cells. In words: Fibronectin secretion (Western blot), ES2 cells. In kind it is cell-based, human. The note with it: 10 ug/ml; for % inhibition of Fibronectin secretion: ES2 cells. The method, then: Inhibition of Fibronectin secretion is physiological and the determination of its quantity is based on the following criteria: • 1. Fibronectin is secreted from viable cells. Only cell with over 85% viable cells after drug-treatment are employed in these experiments. The viable cells were determined by MTT assay. • 2. For comparison, the immuno-band intensity from each samples are normalized with cell mass. The cell mass was determined by the MTT assay and is assigned as a MTT unit for each cell sample.
Cells: ES2 cells were grew in T-25 flask with RPMI 1640 medium over night before drug-treatment. Drug-treatment: cells cultures were replaced with fresh RPMI medium with Xanifolia-Y (10 ug/ml final concentration) or DMSO (as control) at 0 hour. At 1, 2, 4, 8 and 24 hour, aliquot of culture medium was taken out for Fibronectin determination. Fibronectin was determined by Western blot with monoclonal antibody (SIGMA) specific to human Fibronectin only.
Drug-treatment: cells cultures were replaced with fresh RPMI medium containing Xanifolia-Y (10 ug/ml final concentration) or DMSO (as control) at 0 hour. At 4 hours (A) or 8 hour (B), culture medium was replaced with fresh culture medium without drug. At 2, 4, 8 and 24 hour, aliquot of culture medium was taken out for Fibronectin determination. Fibronectin (FN) was determined by Western blot with monoclonal antibody (SIGMA) specific only to human Fibronectin.
Drug-treatment: cells cultures were replaced with fresh RPMI medium containing Xanifolia-Y (10 ug/ml final concentration) or DMSO (as control) at 0 hour. At 2, and 18 hour, aliquot of culture medium was taken out for Fibronectin determination (Western blot method). Cell viability at 18 hours was determined by MTT assay. Cultures were replaced with RPMI medium with MTT and incubated for an hour. The formation of formazan was dissolved in DMSO and OD at 570 nm was measured.
Cells and Drug-treatment: same as previous experiments. After 7 or 24 hours, aliquot of culture medium was taken out for Fibronectin determination (Western blot method). Cell viability at 24 hours was determined by MTT assay.
Cells: ES2 cells were grew in RPMI 1640 medium over night before drug-treatment. Drug-treatment: cells cultures were replaced with fresh RPMI medium containing DMSO (as control) [D]; Xanifolia-Y (10 ug/ml) [Y]; or Paclitaxel 10 or 50 ng/ml [T10, ro T50]. After 24 hours, aliquot of culture medium was taken out for Fibronectin determination (Western blot method). Cell viability at 24 hours was determined by MTT assay.
The amount of Fibronectin secreted by cells into medium was determined by Western blot assay. The amount of Fibronectin secreted per cells basis was determined by dividing the Western-band intensity with the MTT unit.
Western Blot: Spent culture medium (0.6 ml) was mixed with SDS sample buffer (0.2 ml), boiled for 3 minutes before loading to SDS gel. Samples (60 ul/lane) were applied to a 6% SDS gel and electrophoresis was conducted with 100 volts for 2 hours. Protein was transferred to a nitrocellulose paper electrophoretically (30 min at 100 volts). The Western blot was incubated with the first antibody (mouse anti-FN, specific to human FN, SIGMA F0916) and second antibody (Anti-mouse IgG AP conjugated, Promega S3721). The immunobands were developed with BCIP/NBT color development system (Promega S3771).
On the technique in general: A western blot detects proteins with antibodies after separation by electrophoresis.

A further test deals with (Liver) HepG2. Briefly: MTT assay HepG2. It counts as cell-based, human. The method, then:
as §1, §2

In a further test the test system is (Skin) SK-MELS. In words: MTT assay SK-MEL-5. It counts as cell-based, human. The method, then:
as §1, §2

Test [3] deals with Fibronectin secretion from bladder carcinoma cells (HTB-9). Briefly: Fibronectin secretion (Western blot), HTB-9 cells. It counts as cell-based, human. The note with it: 10 ug/ml.
Test [4] has as its system Fibronectin secretion from lung carcinoma cells (H460). Briefly: Fibronectin secretion (Western blot), H460 cells. The note with it: for % inhibition of Fibronectin secretion: H460 cells, 10 ug/ml. In kind it is cell-based, human.
The test system of test [5] is Fibronectin secretion from liver HepG2 cells. Briefly: Fibronectin secretion (Western blot), HepG2 cells. In kind it is cell-based, human. The note with it: 10 ug/ml; for % inhibition of Fibronectin secretion: HepG2 cells.
In test [6] the test system is (bladder)TB9 cells / HTB-9. Briefly: MTT assay bladder cells. In kind it is cell-based, human. The note with it: (bladder)TB9 cells. The method, then: as §1
(§3) MTT Assay. The procedure for MTT assay followed the method described by Carmichael et al. (1987) with modifications. The cells were seeded into a 96-well plate at concentration of 10,000/well for HTB-9, HeLa, H460, HCT116, T98G and OVCAR-3), 15,000/well for DU145, MCF-7, HepG2 and U2OS), and 40,000/well for K562 for 24 hours before drug-treatment. The cells were then exposed to the drugs for 48 hours (72 hours for HepG2 and U2OS, and 96 hours for MCF-7). After the drug-treatment, MTT (0.5 mg/mL) was added to cultures and incubated for an hour. The formazan (product of the reduction of tetrazolium by viable cells) formed and was dissolved with DMSO and the O.D. at 490 nm, and was measured by an ELISA reader. The MTT level of the cells before drug-treatment was also measured (T0). The % cell-growth (% G) is calculated as: % G=(TD−T0/TC−T0)×100(1), where TC or TD represents O.D. readings of control or drug-treated cells. When T0>TD, then the cytotoxicity (LC) expressed as % of the control is calculated as: % LC=(TD−T0/T0)×100(2).

A further test has as its system (Breast)MCF7. In words: MTT assay MCF7. In kind it is cell-based, human. As to the method:
as §1, §2

The subject of test [7] is Fibronectin secretion from brain glioblastoma T98G cells. In words: Fibronectin secretion (Western blot), T98G cells. The note with it: for % inhibition of Fibronectin secretion: 10 ug/ml. In kind it is cell-based, human.
A further test relates to tumor growth. Briefly: MTT anticancer activity of Y, X and hydrolysis products (FIG. 4C). In kind it is cell-based. The note with it: FIG. 4C; read-out: IC50, inhibits tumor growth / anticancer activity. The method, then:
as §3
(A) Alkaline Hydrolysis of Xanifolia-Y: 20 mg of Xanifolia-Y was dissolved in 0.5 mL of 1M NaOH. The solution was incubated in an 80° C. water bath for 4 hours. It was cooled to room temperature before being neutralized with 0.5 mL 1 N HCl (adjusted pH to about 3). The mixture was extracted with 2 mL 1-butanol 3 times. The butanol fractions were collected and lyophilized. The hydrolyzed saponin was further purified with HPLC in a C-18 column eluted with 25% acetonitrile.
(B) Acid Hydrolysis of Xanifolia-Y: 15 mg Xanifolia-Y was dissolved in 1 mL of Methanol. 1 mL of 2N HCl was then added. The mixture was refluxed in an 80° C. water bath for 5 hours. The solution was then neutralized by adding 2 mL of 1N NaOH (to a final pH 3-4). The aglycone was then extracted with ethylacetate 3 mL×3. The extracts were collected and pooled. Further isolation of aglycone (sugar-removed Xanifolia-Y) was achieved by HPLC with isocratic elution of 80% acetonitrile.

A further test has as its system ovarian cancer cells. Briefly: MTT assay, growth of ovarian cancer cells (FIG. 3A, 3B). In kind it is cell-based. The note with it: Homo sapiens, read-out: IC50, inhibiting growth of ovarian cancer cells. The method, then: as §1, §2

One may read the inhibition as the relative decrease from the control value, in per cent.

Converted amounts (≈) assume the structure as drawn.

Consider `CC=C(C)C(=O)OC1C(OC(=O)C(C)=CC)C23C(O)CC4(C)C5(C)CCC6C(C)(C)C(OC7OC(C(=O)O)C(O)C(OC8OC(CO)C(O)C(O)C8OC8OC(C)C(O)C(O)C8OC8OC(C)C(O)C(O)C8O)C7OC7OC(CO)C(O)C(O)C7O)CCC6(C)C5CCC4(OC2O)C3CC1(C)C` (centres unmarked) [Mb5], for which the “% inhibition of Fibronectin secretion” value in test [1] is given as 15%; in test [2], 35%; in test [3] it was 28%; in test [4], 25%; in test [5] it was 35%; in test [7], 33%. Besides, the IC50 with (Prostate) DU145 came out at 7.6 µg/mL (≈ 5.19 µM); with ES2(ovarian) cells it was 6.5 µg/mL (≈ 4.44 µM); in the test on (Liver) HepG2, 6.5 µg/mL (≈ 4.44 µM); in the test with (Skin) SK-MELS, 25 µg/mL (≈ 17.1 µM); in [6], 6.5 µg/mL (≈ 4.44 µM); in the test on (Breast)MCF7 it was 11 µg/mL (≈ 7.52 µM).
Turning to `CC=C(C)C(=O)OC1C(OC(=O)c2ccccc2)C(C)(C)CC2C3=CCC4C5(C)CCC(OC6OC(C(=O)OC)C(O)C(OC7OCC(O)C(O)C7O)C6OC6OC(CO)C(O)C(O)C6O)C(C)(C)C5CCC4(C)C3(C)CC(O)C21CO` [Ba4, 3-O-[β-D-galactopyranosyl(1→2)]-β-D-xylopyranosyl (1→3)-β-D-methylglucuronopyranosyl-21-O-benzoyl, 22-O-angeloyl-3β, 15α, 21β, 22α, 28-pentahydroxyolean-12-ene], the “% inhibition of Fibronectin secretion” value in test [1] came to 10%; in test [2], 28%; in test [3], 30%; in test [4], 18%; in [5], 28%; in test [7], 24%.
Turning to `C/C=C(/C)C(=O)O[C@H]1[C@H](OC(C)=O)C(C)(C)CC2C3=CCC4[C@@]5(C)CC[C@H](O[C@@H]6OC(C(=O)OCCCC)[C@@H](O)C(O[C@@H]7O[C@@H](CO)C(O)C7O)C6O[C@@H]6OC(CO)[C@H](O)C(O)C6O)C(C)(C)C5CC[C@@]4(C)[C@]3(C)C[C@@H](O)[C@]21CO` (stereo partly drawn) [X, 3-O-{[β-D-galactopyranosyl (1→2)]-[α-L-arabinofuranosyl (1→3)]-β-D-glucuronopyranosidebutyl ester}-21-O-acetyl-22-O-angeloyl-3β,16α,21β,22α,28-pentahydroxyolean-12-ene], the inhibition at 20 µg/mL in test [1] (Homo sapiens, 20 ug/ml) was 15%; in test [4] (Homo sapiens, NCI-H460, H460 cells, 20 ug/ml), 37%; in test [7] (Homo sapiens, T98G, 20 ug/ml), 52%. The IC50 in the test on tumor growth is 6 µg/mL (≈ 5.26 µM); with ovarian cancer cells it was 30 µg/mL (≈ 26.3 µM). Besides, the inhibition at 10 µg/mL worked out at 39% in test [2] (Homo sapiens, ES-2, ES2 cells); 38% in test [3] (Homo sapiens); 42% in [5] (Homo sapiens, HepG2, HepG2 cells).

The values are drawn from patent US10213451B2, “Methods and compounds for modulating the secretion or expression of adhesion proteins or angiopoietins of cells” (PACIFIC ARROW LIMITED, priority 2004, dated 2019).
